In US20230117205A1, “B7-H4 ANTIBODY-DRUG CONJUGATES FOR THE TREATMENT OF CANCER” (SEAGEN INC., priority 2021, published 2023):

Assays:
MDA-MB-231 = experiment: In vitro cytotoxicity, 96-hour 3D spheroid, CellTiter-Glo; format: cell-based, human; conditions: MDA-MB-231 (non-B7-H4-expressing)
Method: (§1) The cytotoxicity was evaluated when cells were grown in 3D spheroid (round bottom, ultra-low attachment plates) conditions.
(§2) Cancer cell lines expressing B7-H4 (SKBR3, MX-1, and MDA-MB-468) as well as a non-B7-H4-expressing cell line (MDA-MB-231) were thawed from cryovials stored at […] into complete growth media and allowed to grow and recover from thaw at 37° C. and 5% CO2 until cell viability determined by Vi-CELL XR (Beckman Coulter, Indianapolis, Ind.) were above 90%. Cells were then counted and plated at 2000, 2200, 2200, and 2200 cells/well respectively. Cells were plated in 150 μL complete growth media in round bottom, black walled, ultra-low attachment, 96-well plates (Corning 4520). Cell plates were placed at 37° C. and 5% CO2 overnight to allow cells to adhere. ADCs were thawed and 4×8-point serial dilutions were prepared (final dose range 1000-0.061 ng/mL) in RPMI 1640+20% FBS. Fifty μL of each dilution were then added to each cell plate in triplicate. Cells were then left to incubate at 37° C. and 5% CO2 for 96 hours. Cell plates were then removed from the incubator and allowed to cool to room temperature for 30 minutes. CellTiter-Glo® luminescent assay (Promega Corporation, Madison, Wis.) was prepared according to Promega's protocol. One hundred uL CellTiter-Glo® were added to assay plates using a Formulatrix Tempest liquid handler (Formulatrix, Inc.) and plates were heat sealed using an ALPS300 automated microplate heat sealer (Thermo Scientific) and protected from light for 30 minutes at room temperature. The luminescence of each plate was then determined using an EnVision Multilabel plate reader (Perkin Elmer, Waltham, Mass.). […] One hundred uL of lysed spheroid suspension was then transferred to a black walled, flat bottom 96 well plate and read on the EnVision Multilabel plate reader (Perkin Elmer, Waltham, Mass.). Raw data were then analyzed in Graphpad Prism (San Diego, Calif.) using a non-linear, 4-parameter curve fit model (Y=Bottom+[Top-Bottom]/[1+10^[[Log EC50-X]×HillSlope]]). […]

MDA-MB-468 = experiment: as above; format: cell-based, human
Method: as §1, §2

SKBR3 = experiment: as above; format: cell-based, human
Method: as §1, §2

[1] = test system: SKBR3, MX-1, and 293T-B7-H4; experiment: NK cell-mediated ADCC; format: cell-based, human; conditions: NK effector cells, 4 hours
Excerpt: Antibodies directed to cell surface antigens can elicit direct killing of antibody-coated cells, including induction of ADCC.
Human PBMCs were thawed into pre-warmed R10+ Media (RPMI 1640 (Gibco #11875-093) with 10% HI-FBS (Gibco #16140-071), 1× sodium pyruvate (Gibco #11360-070), and 1× GlutaMax (Gibco #35050-061)) and then an EasySep NK isolation kit (StemCell #17955) was used to purify NK cells. Target tumor cells were lifted off using TrypLE Express (Gibco #12604-021) and then plated into a U-bottom plate (Falcon #353077) at 40,000 cells/well (50 μL/well) for MX-1 and 293T-B7-H4 (HEK 293T cells engineered to express human B7-H4) and 20,000 cells/well (50 μL/well) for SKBR3 cell line. […] (NOTE: actual starting concentration was 6000 ng/mL to account for the inherent 3× dilution of the assay.) Then 200,000 cells/well (50 μL/well) of isolated NK cells were plated into the U-bottom plate (effector: tumor ratios were as follows: NK:SKBR3 cells 10:1; NK:MX1 cells 5:1, NK:293T-B7-H4 cells 5:1). Appropriate controls included: positive control mAb and ADC and negative non-binding control mAb and ADC, NK cells only control, target cells only control, target cells maximum lysis control, and media only control. […] A CytoTox 96 Non-Radioactive Cytotoxicity Assay kit (Promega #G1780) was used to develop the signal, which was read using 490 nm wavelength on a SpectraMax 190 instrument.

HCC1569 xenograft model = experiment: HCC1569 xenograft, Study HCC1569-2; format: in vivo, NSG mice; conditions: 3 mg/kg, three weekly doses, i.p.
Method: Tumor volume was measured once or twice weekly until study day 71.
Female NSG mice were implanted with 1×10^6HCC1569 tumor cells in 25% Matrigel H C (Corning #354248) subcutaneously. Once tumor volumes reached 100 mm^3, mice were randomized into treatment groups of 5 mice each and dosed with 3 mg/kg of ADC every seven days for three total doses (q7dx3). Each mouse was treated with 10 mg/kg hIVIG (Grifolds) twenty-four hours prior to receiving each ADC dose. Tumor volumes were measured 1-3 times per week, and animals were euthanized when tumor volume reached 700-1000 mm^3. Stock concentrations of ADC were diluted to a desired concentration (with 0.01% Tween20 in PBS) and injected i.p. into each treatment group.

OVCAR3 xenograft model = experiment: OVCAR3 xenograft, Study OVCAR3-e314; format: in vivo, SCID mice; conditions: 3 mg/kg, three weekly doses, i.v.
Method: Tumor volume was measured twice weekly until study day 60.
Female SCID mice were implanted with OVCAR3 tumor fragments (˜1 mm^3) subcutaneously at Charles River Discovery Services (NC). Once tumor volumes reached 150-200 mm^3, mice were dosed with 3 mg/kg of ADC every seven days for three total doses (q7dx3). Tumor volumes were measured twice weekly, and animals were euthanized when tumor volume reached 1000 mm^3. Stock concentrations of ADC were diluted to a desired concentration (with PBS) and injected i.v. into each treatment group.
Tumor growth inhibition (TGI) for each treatment group compared to the untreated group was analyzed on study day 26 as follows: % TGI=[1−(([…])/MTVuntreated)]*100, where MTV is the mean tumor volume. Statistical significance was determined using the Mann-Whitney U test (two-tailed).

Substance: SGN-B7H4V: ADC of fully human IgG1 anti-B7-H4 mAb conjugated to monomethyl auristatin E (MMAE) via a protease-cleavable valine-citrulline linker (vedotin)
- ×50 (MDA-MB-231): >1000 ng/mL
- ×50 (MDA-MB-468): 105 ng/mL
- ×50 (SKBR3): 4 ng/mL
- ADCC response [1]: comparable ADCC responses
- anti-tumor activity (tumor volume) (HCC1569 xenograft model): robust tumor growth delay
- mean tumor volume compared to the untreated group (OVCAR3 xenograft model): reduction in mean tumor volume
- Tumor growth inhibition (TGI) (OVCAR3 xenograft model; study day 26, compared to untreated): 48%
